Measured values reported in ChEMBL document CHEMBL1649379, “Synthesis of a novel ester of hydroxytyrosol and α-lipoic acid exhibiting an antiproliferative effect on human colon cancer HT-29 cells” (2011).

Assays:
Assay type in all cases: functional
[1] = tested on: HT-29; assay: Induction of cell cycle arrest in human HT-29 cells assessed as accumulation at S phase at 300 uM after 24 hrs by flow cytometry (reference value: 21+/-0.9%)
[2] = tested on: HT-29; assay: Growth inhibition of human HT-29 cells at 150 uM after 48 hrs by BrdU-ELISA assay; details: HT-29, 48 h, read-out: GI
[3] = tested on: HT-29; assay: Induction of cell cycle arrest in human HT-29 cells assessed as accumulation at G0/G1 phase at 300 uM after 24 hrs by flow cytometry (reference value: 61.4+/-1.1%)
[4] = tested on: HT-29; assay: Growth inhibition of human HT-29 cells at 100 uM after 24 hrs by BrdU-ELISA assay; details: HT-29, 24 h, read-out: GI
[5] = tested on: HT-29; assay: Induction of cell cycle arrest in human HT-29 cells assessed as accumulation at S phase at 100 uM after 24 hrs by flow cytometry (reference value: 21+/-0.9%)
[6] = tested on: HT-29; assay: Induction of cell cycle arrest in human HT-29 cells assessed as accumulation at G0/G1 phase at 150 uM after 24 hrs by flow cytometry (reference value: 61.4+/-1.1%)
[7] = tested on: HT-29; assay: Induction of cell cycle arrest in human HT-29 cells assessed as accumulation at G2/M phase at 150 uM after 24 hrs by flow cytometry (reference value: 17.6+/-1%)
[8] = tested on: HT-29; assay: Growth inhibition of human HT-29 cells at 100 uM after 48 hrs by BrdU-ELISA assay; details: HT-29, 48 h, read-out: GI
[9] = tested on: HT-29; assay: Induction of cell cycle arrest in human HT-29 cells assessed as accumulation at G2/M phase at 100 uM after 24 hrs by flow cytometry (reference value: 17.6+/-1%)
[10] = tested on: HT-29; assay: Induction of cell cycle arrest in human HT-29 cells assessed as accumulation at S phase at 150 uM after 24 hrs by flow cytometry (reference value: 21+/-0.9%)
[11] = tested on: HT-29; assay: Growth inhibition of human HT-29 cells at 300 uM after 24 hrs by BrdU-ELISA assay; details: HT-29, 24 h, read-out: GI
[12] = tested on: HT-29; assay: Induction of cell cycle arrest in human HT-29 cells assessed as accumulation at G0/G1 phase at 100 uM after 24 hrs by flow cytometry (reference value: 61.4+/-1.1%)
[13] = tested on: HT-29; assay: Growth inhibition of human HT-29 cells at 300 uM after 48 hrs by BrdU-ELISA assay; details: HT-29, 48 h, read-out: GI
[14] = tested on: HT-29; assay: Growth inhibition of human HT-29 cells at 150 uM after 24 hrs by BrdU-ELISA assay; details: HT-29, 24 h, read-out: GI
[15] = tested on: HT-29; assay: Induction of cell cycle arrest in human HT-29 cells assessed as accumulation at G2/M phase at 300 uM after 24 hrs by flow cytometry (reference value: 17.6+/-1%)

| SMILES | Activity [1] | inhibition of growth at 150 µM [2] | Activity [3] | inhibition of growth at 100 µM [4] | Activity [5] | Activity [6] | Activity [7] | inhibition of growth at 100 µM [8] | Activity [9] | Activity [10] | inhibition of growth at 300 µM [11] | Activity [12] | inhibition of growth at 300 µM [13] | inhibition of growth at 150 µM [14] | Activity [15] |
| --- | --- | --- | --- | --- | --- | --- | --- | --- | --- | --- | --- | --- | --- | --- | --- |
| O=C(CCCCC1CCSS1)OCCc1ccc(O)c(O)c1 (stereo not given) | 14% | 70.6% | 28.2% | 33.9% | 17.7% | 29.3% | 50.5% | 45.6% | 49.7% | 18.1% | 83.9% | 31.3% | 83.6% | 69.6% | 56.8% |
| OCCc1ccc(O)c(O)c1 [HYDROXYTYROSOL] | 20.1% | 29.3% | 34.4% | 20.7% | 22.5% | 40.3% | 36.7% | 17.3% | 35% | 20.3% | 64.2% | 40.5% | 53.2% | 37.5% | 43.5% |
| O=C(O)CCCCC1CCSS1 (stereo not drawn) [LIPOIC ACID, ALPHA] | 19.3% | 18.4% | 37.5% | 17.8% | 19.2% | 45.6% | 32.1% | 6.5% | 36.9% | 20.1% | 24% | 43.5% | 19.5% | 25.5% | 40.3% |
